Literature values, collected in patent US20200054560A1 (Alnova Pharmaceuticals, Ltd., priority 2017, published 2020).

CC(=O)c1c(C)c2cnc(Nc3ccc(N4CCNCC4)cn3)nc2n(C2CCCC2)c1=O [Palbociclib, 6-acetyl-8-cyclopentyl-5-methil-2-(5-piperazin-1-yl-pyridin-2-ylamino)-8H-pyrido [2,3-d] pyridin-7-one]
solubility in N,N-dimethylformamide (N,N-dimethylformamide): slightly soluble | solubility above pH 4 (above pH 4): reduces significantly | solubility behaviour at or below pH 4 (at or below pH 4): high-solubility compound | solubility in dimethyl sulfoxide (dimethyl sulfoxide): slightly soluble | solubility in methanol (methanol): very slightly soluble | solubility in water (water): very slightly soluble
